Measured values reported in paper PMC7887271, “Fast acting allosteric phosphofructokinase inhibitors block trypanosome glycolysis and cure acute African trypanosomiasis in mice” (Nature Communications, 2021).
Several values for one entry are separate records, joined by “and”; a condition that tells them apart may be missing. Equal entries are not always repeated. Where two headings read alike, the source gives them in different places.

Legend:
[1] = target: T1, T. brucei phosphofructokinase (TbPFK) (Trypanosoma brucei brucei, UniProt O15648); assay: ADP-Glo assay for measuring PFK inhibition; format: biochemical
T1 construct: made in house; host or cells: Escherichia coli C41 (pET28a, codon optimised gene)
T1 sequence (O15648 1-487): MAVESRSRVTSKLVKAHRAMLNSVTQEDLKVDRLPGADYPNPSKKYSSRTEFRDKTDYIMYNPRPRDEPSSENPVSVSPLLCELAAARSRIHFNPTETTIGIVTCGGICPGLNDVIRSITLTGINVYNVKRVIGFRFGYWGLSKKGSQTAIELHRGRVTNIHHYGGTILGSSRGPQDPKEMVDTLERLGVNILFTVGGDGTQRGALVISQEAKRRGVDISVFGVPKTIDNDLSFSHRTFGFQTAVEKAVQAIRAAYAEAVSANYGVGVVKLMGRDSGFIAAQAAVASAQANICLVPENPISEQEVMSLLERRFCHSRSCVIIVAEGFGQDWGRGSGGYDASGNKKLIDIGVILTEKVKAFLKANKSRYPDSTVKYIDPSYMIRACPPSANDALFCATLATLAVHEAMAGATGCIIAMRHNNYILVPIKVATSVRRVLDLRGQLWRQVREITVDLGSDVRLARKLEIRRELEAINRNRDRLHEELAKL
Procedure: Parasite enzyme kinetic data were measured using N-terminally His6-tagged TbPFK expressed in Escherichia coli C41 cells, using a codon optimised gene inserted in a pET28a vector (Supplementary Methods 1). Recombinant human PFKs were expressed in PFK-deficient Saccharomyces cerevisiae. PFK enzyme inhibition was measured using an ADP-Glo^TM assay (Promega) in a 96-well plate format (Supplementary Methods 2.1), using a Spectramax© M5 Multimode Plate Reader to measure luminescence values which were converted to ADP concentrations. IC50 values were determined using a sigmoidal curve fitting algorithm in Kaleidagraph 4 (Supplementary Fig. 1). Mode of action studies were carried out using a linked enzyme assay coupling the forward reaction of TbPFK to the M1 isoform of human pyruvate kinase followed by lactate dehydrogenase. The change in UV absorbance at 340 nm resulting from the conversion of NADH to NAD^+ was measured at 25 °C in ‘kinetic mode’ on a Spectramax© M5 Multimode plate reader. Initial velocities were plotted against substrate concentration to give curves showing non-competitive inhibition (Supplementary Fig. 2). An alternative linked enzyme assay was developed to control for the potential inhibitory activity of ATP on human PFK (Supplementary Methods 2.3).
The ADP-Glo™ end-point assay kit manufactured by Promega (cat. No. V9102) was used to measure ADP produced in the phosphofructokinase reaction:
Following this kinase reaction, the addition of a reagent results in any unused background ATP being removed and the reaction is sequestered. A second reagent is then added to convert the remaining ADP to ATP which is coupled to the luciferase/luciferin reaction to produce light. ‘Ultrapure’ ATP and ADP from Promega were used to reduce background noise. All reagents additional to those provided in the Promega ADP-Glo™ kit were purchased from Sigma-Aldrich.
The assay buffer comprised 50 mM triethanolamine (TEA), 10 mM MgCl2, 5 mM KCl, 0.1% w/v bovine serum albumin (BSA), 0.005% Tween-20, 1% DMSO, pH 7.4. A 3-fold serial dilution of 250x inhibitor stocks was carried out in 100% DMSO. 2 µl of these dilutions was added to 198 µl assay buffer and mixed well using a multichannel pipette. […] Concentration ranges of inhibitor compounds were 40 - 0.006 µM (final concentration, 1% DMSO). The PFK reaction in the presence of inhibitor was carried out using 10 µl of 1 µg/ml PFK (final concentration 0.4 µg/ml) which was added to 10 µl of the 1% DMSO inhibitor compound serial dilutions in a white, non-binding 96-well plate (Greiner BioOne 655904). CTCB-001 was used as a positive control at a final concentration of 5 µM. Assay buffer containing 1% DMSO was added instead of inhibitor compound for the negative control. The protein/inhibitor mixture was incubated for 10 minutes at room temperature (RT). The kinase reaction was started by adding a 5x ATP/F6P stock in assay buffer (final concentrations 0.5 mM F6P and 0.1 mM ATP). Plates were then sealed, centrifuged at 560 x g for 30 seconds and incubated at RT for 30 minutes. 25 µl of ‘ADP-Glo™ Reagent’ was then added to each well, mixed using a multichannel pipette and incubated at room temperature for 40 minutes. 50 µl of ‘Kinase Detection Reagent’ was added and incubated for 50 minutes at RT. The luminescence was recorded using a Spectramax© M5 Multi-mode Plate Reader (Molecular Devices) in single-point mode, with an integration time of 750 milliseconds. The luminescence values were converted to ADP concentration using a standard calibration curve for ADP. The resulting ADP concentrations were plotted as a function of inhibitor compound concentration using Kaleidagraph 4.0 software. The data were analysed using non-linear regression and a sigmoidal curve was fitted (Supplementary Figure 1) to determine the IC50. Kaleidagraph 4.0 uses the Levenberg-Marquardt algorithm in an iterative procedure to fit non-linear curves. […] The slope of the curve at the midpoint (m4) was set to 1.

[2] = test system: bloodstream form of T. brucei strain Lister 427; assay: T. b. brucei 427 growth inhibition assay (LILiT, Alamar Blue); format: cell-based; conditions: Trypanosoma brucei
Procedure: The ‘in vitro’ parasite killing assay used the BSF of the non-human pathogenic subspecies T. b. brucei, strain Lister 427, cultured in HMI-9 medium containing 10% foetal bovine serum. A second cell line, T. b. brucei GVR35-Luc2 which constitutively expresses firefly luciferase was grown in Modified HMI-9 plus 20% foetal calf serum supplemented with 20% Serum Plus (Sigma) and 0.15 μg mL^−1 puromycin. Both strains of trypanosomes were cultured in T-25 vented cap flasks at 37 °C and 5% CO2.
The ‘in vitro’ parasite killing assay used the bloodstream-form of the non-human pathogenic subspecies T. b. brucei, strain Lister 427 (a gift from Professor Keith Matthews) which was cultured in HMI-9 medium containing 10% fetal bovine serum (FBS). A second cell line, T. b. brucei GVR35-Luc2 which constitutively expresses firefly luciferase (5) was grown in Modified HMI-9 plus 20% fetal calf serum (FCS) supplemented with 20% Serum Plus (Sigma) and 0.15 μg/ml puromycin as described previously (5). Both strains of trypanosomes were cultured in T-25 vented cap flasks at 37 °C and 5% CO2.
Growth inhibition tests of bloodstream-form T. b. brucei Lister 427 were carried out using the LILiT (long incubation low inoculation test) method (6). The parasites were cultured in complete HMI-9 medium containing 10% FBS in 96-well plates (Greiner Inc.) with approximately 2500 trypanosomes per well. A 3-fold dilution series (in the range from 45 µM – 0.020 µM) of the inhibitor compounds were prepared in the plate; the maximal concentration of DMSO was 0.45%. After 72 hours of incubation at 37 °C and 5% CO2, 50 µl Alamar Blue (0.2% diluted with Dulbecco’s-phosphate buffered saline (D-PBS, Sigma) was added to each well and plates were incubated at 37 °C and 5% CO2 for 4 hours. Fluorescence was read on the BMG multiplate reader using an excitation wavelength of 530 nm and an emission wavelength of 590 nm.

[3] = target: T2, TbPFK (Trypanosoma brucei brucei, UniProt O15648); conditions: amidosulfonamide series; cited from earlier work
T2 construct: made in house; host or cells: Escherichia coli C41 (pET28a, codon optimised gene)
T2 sequence (O15648 1-487): T1 sequence (O15648 1-487)

[4] = test system: T. b. brucei GVR35-VSL2; assay: Mouse model of stage 1 and stage 2 HAT, bioluminescence imaging; format: in vivo, T. b. brucei in female CD-1 mice
From the text: An alternative mouse model for stage 1 (acute) and stage 2 (CNS-involved) HAT has been developed using a transgenic cell line derived from the pleiomorphic T. b. brucei GVR35 that expresses red-shifted firefly luciferase[17],[18]. […] T. b. brucei GVR35-infected mice present stage 1 disease by day 7 post infection with progression to stage 2 by day 21. By injecting the mouse with luciferin, the level of parasitaemia can be estimated in real time by monitoring the luminescence. Unlike monomorphic Lister 427 T. b. brucei, the pleiomorphic GVR35 T. b. brucei is controlled by a quorum-sensing mechanism resulting in the significant increase in survival time in mice and lower blood parasitaemia that occurs in waves. This extended survival time is also accompanied by parasite dissemination to multiple tissues and organs, including the skin, adipose tissue, lung and brain, with parasite loads increasing over time[17],[19].
For the mouse model of stage 1 and stage 2 HAT T. b. brucei GVR35-VSL2 parasites (3 × 10^4) were injected into a single donor female CD-1 mouse intraperitoneally. Once infection was established, starting on day 7 for stage 1 studies and day 21 for stage 2 studies, mice were either left untreated (n = 3) or dosed by oral gavage with CTCB compound in Cremophor EL: EtOH: D-PBS (30:10:60 v/v; n = 6). Progression of T. b. brucei GVR35-VSL2 infection was monitored primarily by in vivo bioluminescence imaging of infected mice using an IVIS Spectrum (PerkinElmer). For stage 1 studies, imaging of infected mice was performed before treatment on day 7 post infection and on days following the treatment (days 8, 9 and 14). Imaging on groups of three mice was performed 12 min after intraperitoneal injection of 150 mg kg^−1 D-luciferin (Promega) in PBS. For stage 2 studies, mice were imaged prior to treatment on day 21, and subsequently on days 22 and 23. On day 23, 24 h after the final dose, mice were sacrificed by cervical dislocation and perfused with PBS containing 15 g L^−1 glucose to allow ex vivo imaging of whole brains (Supplementary Figs. 12 and 13).
Female CD-1 (Charles River UK; 6-8 weeks old) mice were infected with 3 × 10^4 T. b. brucei GVR35-VSL2 bloodstream form parasites intraperitoneally. T. b. brucei GVR35-VSL2 expresses red-shifted luciferase and provides a better signal for imaging (13). Once infection was established, starting on day 7 for Stage 1 studies and day 21 for Stage 2 studies, mice were either left untreated (n=3) or dosed by oral gavage with CTCB compound in Cremophor EL: EtOH : D-PBS (30:10:60 v/v) (n = 6). Additional groups of mice (n=3) that received either a single intraperitoneal dose of diminazene aceturate (Sigma-Aldrich) at 40 mg/kg in sterile water or 0.1 ml melarsoprol gel (14) containing 3.6 mg melarsoprol, applied topically for 3 consecutive days, served as controls for Stage 1 and Stage 2 treatment studies, respectively.
Progression of T. b. brucei GVR35-VSL2 infection was monitored primarily by in vivo bioluminescence imaging of infected mice using an IVIS Spectrum (PerkinElmer) as described previously (5). For stage 1 studies, imaging of infected mice was performed before treatment on day 7 post-infection and in days following the treatment (days 8, 9 and 14). Imaging on groups of three mice was performed 12 minutes after intraperitoneal injection of 150 mg/kg D-luciferin (Promega) in PBS. For stage 2 studies, mice were imaged prior to treatment on day 21 and subsequently on days 22 and 23. On day 23, 24 hours after the final dose, mice were sacrificed by cervical dislocation and perfused with phosphate-buffered saline containing 15 g.L^−1 glucose to allow ex vivo imaging of whole brains. To this end, 100 μl D-luciferin was administered onto the brain surface and imaging performed immediately thereafter.

[5] = ADP-Glo, mean ± SD, read-out: IC50 (µM) for inhibition of T. brucei phosphofructokinase (PFK IC50)
[6] = 72 h, read-out: EC50 (µM) in vitro parasite killing of bloodstream form T. brucei Lister 427 (Tbb EC50), 72 h, Alamar Blue
[7] = source data for Fig. 2 and Table 1, read-out: Average IC50
[8] = source data, read-out: IC50 (µM), single dated measurement
[9] = Average IC50 (µM), source data for Fig. 2 and Table 1
[10] = IC50 (µM), single dated measurement, source data

| Compound | EC50 [2, 6] | IC50 [1, 7] | IC50 [1, 8] | other results |
| --- | --- | --- | --- | --- |
| Clc1ccc(Cn2ccc3cnccc32)cc1Cl [CTCB103] | 7.8 ± 0.1 µM | – | – | IC50 [1, 5]: 0.46 ± 0.03 µM |
| Clc1ccc(Cn2cnc3cnccc32)cc1Cl [CTCB107] | 8.5 ± 0.6 µM | 0.6 µM | 0.6 µM | IC50 [1, 5]: 1.14 ± 0.76 µM |
| O=C(Cc1ccc(Cl)c(Cl)c1)Nc1ccc(S(=O)(=O)Nc2ccon2)cc1 [CTCB-001] | 20.2 ± 2.1 µM | – | – | IC50 [1, 9]: 0.25 µM; IC50 [1, 10]: 194 nM (2×) and 221 nM and 189 nM and 230 nM and 436 nM and 223 nM and 261 nM (2×); IC50 [3]: ~200 nM |
| Clc1ccc(Cn2ccnc2)cc1Cl [CTCB-12] | 8.9 ± 0.2 µM | – | – | L.E. ligand efficiency [1]: 0.51; IC50 [1, 9]: 0.83 µM; IC50 ([1]; IC50 (µM) for inhibition of T. brucei phosphofructokinase (PFK IC50), ADP-Glo, mean ± SD): 0.83 µM; IC50 [1, 10]: 0.83 µM |
| O=c1[nH]ccc2c1ccn2Cc1ccc(Cl)c(Cl)c1 [CTCB-360] | 1.1 ± 0.1 µM | 0.07 µM | 0.041 µM and 0.049 µM and 0.091 µM and 0.059 µM and 0.112 µM | – |
| O=c1c2ccn(Cc3ccc(Cl)c(Cl)c3)c2ccn1CCO [CTCB-401] | 0.91 ± 0.04 µM | – | – | IC50 ([1]; read-out: IC50 TbPFK): 0.073 µM; EC50 ([2]; read-out: EC50 against the parasite): 0.9 µM |
| NCCn1ccc2c(ccn2Cc2ccc(Cl)c(Cl)c2)c1=O [CTCB-421] | 0.54 ± 0.09 µM | 0.0335 µM | – | IC50 ([1]; read-out: IC50 TbPFK): 0.03 µM |
| CC(CN)n1ccc2c(ccn2Cc2ccc(Cl)c(Cl)c2)c1=O (stereo not shown) [CTCB-457] | 0.27 ± 0.01 µM | 0.11 µM | 0.092 µM and 0.122 µM | – |
| CNC[C@@H](C)n1ccc2c(ccn2Cc2ccc(Cl)c(Cl)c2)c1=O [CTCB-481] | 0.15 ± 0.05 µM | 0.12 µM | 0.122 µM | – |
| Nc1nc(N)nc(Nc2ccc([As]3SCC(CO)S3)cc2)n1 (stereo not shown) [Melarsoprol, melarsoprol, reference compound] | – | – | – | Whole body bioluminescence - Total Flux ([4]; D21 pre-treatment, single mice): 9.807E+10 p/s and 6.826E+10 p/s and 5.548E+10 p/s; Side head bioluminescence - Total Flux ([4]; D23, individual mice, Supp_Fig13): 2.996E+07 p/s and 8.365E+06 p/s and 9.321E+06 p/s; Ex vivo brain bioluminescence - Total Flux ([4]; D23, single mice): 2.000E+06 p/s and 2.248E+06 p/s and 1.646E+06 p/s; Whole body bioluminescence - Total Flux ([4]; D23 post-treatment, single mice): 1.530E+07 p/s and 2.111E+07 p/s and 2.252E+07 p/s |
